Tests used:
Rattus norvegicus [1] = assay: Anti-inflammatory activity against Rattus norvegicus Wistar albino (rat) assessed as inhibition of carrageenan-induced paw edema at 20 mg/kg, ip measured 4 hr after carrageenan challenge by plethysmometer; format: functional; conditions: route intraperitoneal
Rattus norvegicus [2] = assay: Anti-inflammatory activity against Rattus norvegicus Wistar albino (rat) assessed as inhibition of carrageenan-induced paw edema at 20 mg/kg, ip measured 3 hr after carrageenan challenge by plethysmometer; format: functional; conditions: route intraperitoneal
Rattus norvegicus [3] = assay: Gastrointestinal toxicity in Rattus norvegicus Wistar (rat) assessed as ulcer index at 30 mg/kg, po measured after 17 hr; format: organism-based; design: dose 30 mg/kg, route oral; conditions: in vivo
Rattus norvegicus [4] = assay: Anti-inflammatory activity against Rattus norvegicus Wistar albino (rat) assessed as inhibition of carrageenan-induced paw edema at 10 mg/kg, ip measured 3 hr after carrageenan challenge by plethysmometer; format: functional; conditions: route intraperitoneal
Rattus norvegicus [5] = assay: Anti-inflammatory activity against Rattus norvegicus Wistar albino (rat) assessed as inhibition of carrageenan-induced paw edema at 10 mg/kg, ip measured 4 hr after carrageenan challenge by plethysmometer; format: functional; conditions: route intraperitoneal
Rattus norvegicus [6] = assay: Gastrointestinal toxicity in Rattus norvegicus Wistar (rat) assessed as ulcer index at 20 mg/kg, po measured after 17 hr; format: organism-based; design: dose 20 mg/kg, route oral; conditions: in vivo

| SMILES | inhibition in vivo at 20 mg/kg (Rattus norvegicus [1]) [%] | inhibition in vivo at 20 mg/kg (Rattus norvegicus [2]) [%] | UI (Rattus norvegicus [3]) | inhibition in vivo at 10 mg/kg (Rattus norvegicus [4]) [%] | inhibition in vivo at 10 mg/kg (Rattus norvegicus [5]) [%] | UI (Rattus norvegicus [6]) |
| --- | --- | --- | --- | --- | --- | --- |
| O=C(N/C(=C/c1ccccc1)c1nc2ccc([N+](=O)[O-])cc2[nH]1)c1ccccc1 | 50 | 33.3 |  |  |  |  |
| COc1ccc(/C=C(/NC(=O)c2ccccc2)c2nc3ccc([N+](=O)[O-])cc3[nH]2)cc1 | 51.3 | 24.2 | 1.41 |  |  |  |
| O=C(N/C(=C/c1ccccc1Cl)c1nc2ccc([N+](=O)[O-])cc2[nH]1)c1ccccc1 | 59 | 42.4 | 0.75 |  |  |  |
| Cc1ccc2nc(/C(=C\c3ccccc3)NC(=O)c3ccccc3)[nH]c2c1 | 46.1 | 27.3 |  |  |  |  |
| COc1ccc(/C=C(/NC(=O)c2ccccc2)c2nc3ccc(C)cc3[nH]2)cc1 | 53.8 | 30.3 |  |  |  |  |
| Cc1ccc2nc(/C(=C\c3ccccc3Cl)NC(=O)c3ccccc3)[nH]c2c1 | 50 | 36.4 |  |  |  |  |
| O=C(N/C(=C/c1ccccc1)c1nc2ccccc2[nH]1)c1ccccc1 | 46.1 | 39.4 |  |  |  |  |
| Cc1ccc(/C=C(/NC(=O)c2ccccc2)c2nc3ccccc3[nH]2)cc1 | 47.4 | 39.4 | 1 |  |  |  |
| O=C(N/C(=C/c1ccc(O)cc1)c1nc2ccccc2[nH]1)c1ccccc1 | 47.4 | 27.3 |  |  |  |  |
| COc1ccc(/C=C(/NC(=O)c2ccccc2)c2nc3ccccc3[nH]2)cc1 | 35.9 | 39.4 |  |  |  |  |
| O=C(N/C(=C/c1ccccc1Cl)c1nc2ccccc2[nH]1)c1ccccc1 | 43.6 | 30.3 |  |  |  |  |
| CN(C)c1ccc(/C=C(/NC(=O)c2ccccc2)c2nc3ccccc3[nH]2)cc1 | 34.6 | 18.2 |  |  |  |  |
| COc1ccc2c(c1)c(CC(=O)O)c(C)n2C(=O)c1ccc(Cl)cc1 [INDOMETHACIN] |  |  |  | 48.5 | 77.2 | 4.5 |
